Test system: HeLa
Test: Cytotoxicity against human HeLa cells by MTT assay
Type: functional, cell-based

| Compound | IC50 [nM] |
| --- | --- |
| CC1=C[C@@H]2/C=C(\C)CC[C@H](O)[C@H](O)/C=C/C(=O)[C@]23C(=O)N[C@@H](CC(C)C)[C@@H]3[C@@H]1C [ASPOCHALASIN D] | 5720 |
| CC(=O)O[C@H]1C(=O)[C@@]2(C)[C@H]([C@H](OC(=O)c3ccccc3)[C@]3(O)C[C@H](OC(=O)[C@H](O)[C@@H](NC(=O)c4ccccc4)c4ccccc4)C(C)=C1C3(C)C)[C@]1(OC(C)=O)CO[C@@H]1C[C@@H]2O [PACLITAXEL] | 2.5 |

Source: ChEMBL document CHEMBL3102725, “Trichodermone, a spiro-cytochalasan with a tetracyclic nucleus (7/5/6/5) skeleton from the plant endophytic fungus Trichoderma gamsii” (J Nat Prod, 2014)
